Results on 3 molecules are retold here after US12150939B2, “Therapeutic drug for ectopic ossification having mechanism to inhibit PAR1” (NATIONAL UNIVERSITY CORPORATION KUMAMOTO UNIVERSITY, priority 2015, dated 2024).

Assay [1] concerns FOP-derived fibroblasts. Nature of the assay: Differentiation of FOP-derived fibroblasts to osteoblasts in the absence of serum when using each inhibitor (ALP immunostaining and ALP activity). It is filed as cell-based, human. As to conditions: BMP6 and TFLLR stimulation.
For another assay, the system named is NOG mice. Nature of the assay: Ectopic ossification in teratomas from FOP patient iPS cells implanted into testicle of NOG mice, PAR1 inhibitor (CT). It counts as in vivo. As to conditions: 0.2 mg/kg/day intraperitoneally once daily from 9 weeks after implantation.
Assay [2] has as its system FOP-derived fibroblasts. The assay can be described thus: PAR1 mRNA expression by BMP6 stimulation in the presence of serum (qPCR), FOP-derived fibroblasts. It is filed as cell-based, human. The conditions noted are these: BMP6 50 ng/mL, over time, compared to normal subject-derived fibroblasts. How it is done:
(§1) • (1) Fibroblasts were created from skin biopsy explants from FOP patients and normal subjects under informed consent by a protocol approved by Ethics committee. • (2) Skin samples from patients and from normal subjects were finely cut and cultured in DMEM medium supplemented with 10% fetal bovine serum (FBS). • (3) After emergence of fibroblasts was observed, the fibroblasts were grown to introduce a reprogramming gene. The grown fibroblasts were then put in a solution for freezing containing 10% DMSO+90% FBS and cryopreserved. <2. […] Intensity of bands was evaluated by Image J software (NIH, USA). • (4) In immunoprecipitation, 293T cells in which Smads were overexpressed, and KDM6B or LSD1 were lysed in RIPA buffer (50 mM Tris-HCl, pH 7.4, 1 mM EDTA, 150 mM NaCl, 1% NP-40, protease/phosphatase inhibitor cocktail). […]
A general note: In qPCR the cycle at which signal appears reflects the starting amount.

The subject of assay [3] is normal subject-derived fibroblasts. The assay can be described thus: PAR1 mRNA expression by BMP6 stimulation in the presence of serum (qPCR), normal subject-derived fibroblasts. As to conditions: BMP6 50 ng/mL, over time. It counts as cell-based, human. As to the method:
as §1

Assay [4] concerns FOP-derived fibroblasts. Nature of the assay: Differentiation of FOP-derived fibroblasts to osteoblasts by BMP6 / TFLLR stimulation in the absence of serum (ALP immunostaining and ALP activity). It is filed as cell-based, human. As to conditions: single stimulus. How it is done: as §1

Consider `CC(C)c1ccc(Cn2ccc3c4c(N)nc(NC5CC5)nc4ccc32)cc1` [SCH79797, N3-cyclopropyl-7-[[4-(1-methylethyl)phenyl]methyl]-7H-pyrrolo[3,2-f]quinazoline-1,3-diamine], for which, in the assay with FOP-derived fibroblasts [1] (200 nM), the ALP activity result is “largely decreased” and the “ALP expression (immunostaining)” value is “largely decreased”.

As for `CCOC(=O)N[C@@H]1CC[C@@H]2[C@@H](C1)C[C@H]1C(=O)O[C@H](C)[C@H]1[C@H]2/C=C/c1ccc(-c2cccc(F)c2)cn1` [Vorapaxar, ethyl [(1R,3aR,4aR,6R,8aR,9S,9aS)-9-{(1E)-2-[5-(3-fluorophenyl)pyridin-2-yl]ethen-1-yl}-1-methyl-3-oxododecahydronaphtho[2,3-c]furan-6-yl]carbamate], in the assay on FOP-derived fibroblasts [1] (1 μM), the ALP activity result is given as “largely decreased” and the “ALP expression (immunostaining)” value is “largely decreased”. Moreover, in the assay with NOG mice, the “bone volume in the teratomas relative to vehicle” value is reported as “about one third” and the “teratoma volume calculated from CT images versus vehicle” value is “a significant difference in the teratoma volume was not observed”. Besides, the “bones found in the teratomas (CT images) versus vehicle” value in the assay on NOG mice (after 2 weeks of administration) is “notably less”.

B1: BMP6: bone morphogenetic protein used as osteogenic stimulus (protein, UniProt P22004 375-513, looked up)
Bone morphogenetic protein 6: SASSRRRQQSRNRSTQSQDVARVSSASDYNSSELKTACRKHELYVSFQDLGWQDWIIAPKGYAANYCDGECSFPLNAHMNATNHAIVQTLVHLMNPEYVPKPCCAPTKLNAISVLYFDDNSNVILKKYRNMVVRACGCH
As for B1, the “mRNA expression level of PAR1” value in the assay on FOP-derived fibroblasts [2] is “remarkable increase”. The “mRNA expression level of PAR1” value in assay [3] is recorded as “significantly increased”. Moreover, in the assay on FOP-derived fibroblasts [4], the “ALP activity compared to control” value is recorded as “significantly increased” and the “ALP expression (immunostaining)” value is “observed”.
